Reference: patent US9884806B2, “Cyclic vinylogous amides as bromodomain inhibitors” (ICAHN SCHOOL OF MEDICINE AT MOUNT SINAI, priority 2013, dated 2018)

Key:
[1] = target: T1, BRD4_2 (Homo sapiens, UniProt O60885); test: Fluorescence anisotropy binding assay (competition with FITC-labeled MS417 probe), BRD4_2; details: FITC-MS417 probe 80 nM, PBS pH 7.4, 1 hour, 25° C.
T1 construct: contains two tandem bromodomains (BrD1 and BrD2)

[2] = target: T2, first bromodomain (BrD1) of human BRD4 (Homo sapiens, UniProt O60885); test: Fluorescence anisotropy binding assay (competition with FITC-labeled MS417 probe); details: FITC-MS417 probe 80 nM, PBS pH 7.4, 1 hour, 25° C., read-out: BRD4_1 IC50
T2 construct: the first bromodomain (BrD1) of human BRD4; poly-His (cleaved yes); made in house
Procedure, shortened: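 BRD4 BrD1 (His tag removed by thrombin) at 0.25 to 1 μM competed against 80 nM FITC-labeled MS417 in PBS pH 7.4. Anisotropy read after 1 hour at 25° C. Ki derived from fitted IC50 by Nikolovska-Coleska-corrected Cheng-Prusoff equation, one-site competitive model.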

Structure (SMILES)	IC50 [1] [nM]	IC50 [2] [nM]	melting point
CC1=C(Nc2ccc3ncncc3c2)CCCC1=O [Example 01-61, 2-methyl-3-[(quinazolin-6-yl)amino]cyclohex-2-en-1-one]	> 10000	> 10000	215 to 216 °C
CC1=C(Nc2ccc3cc[nH]c3c2)CCCC1=O [Example 01-62, 3-[(1H-indol-6-yl)amino]-2-methylcyclohex-2-en-1-one]	1000 to 10000	< 1000	227 to 230 °C
CC1=C(Nc2ccc3[nH]c(=O)[nH]c3c2)CCCC1=O [Example 01-63, 5-[(2-methyl-3-oxocyclohex-1-en-1-yl)amino]-2,3-dihydro-1H-1,3-benzodiazol-2-one]	1000 to 10000	1000 to 10000	233 to 235 °C
CC1=C(Nc2ccc3[nH]c(C(=O)O)cc3c2)CCCC1=O [Example 01-64]	1000 to 10000	< 1000	310 to 315 °C
CC1=C(Nc2cc(N)ccc2Cl)CCCC1=O [Example 02-10, 3-((5-amino-2-chlorophenyl)amino)-2-methylcyclohex-2-enone]	1000 to 10000	1000 to 10000	182 to 184 °C
CC1=C(Nc2ccc(N)cc2Cl)CCCC1=O [Example 02-12, 3-((4-amino-2-chlorophenyl)amino)-2-methylcyclohex-2-enone]	1000 to 10000	1000 to 10000	156 to 158 °C
CC1=C(Nc2cccc(N)c2Cl)CCC1=O [Example 02-13, 3-((3-amino-2-chlorophenyl)amino)-2-methylcyclopent-2-enone]	1000 to 10000	1000 to 10000	223 to 225 °C
CC1=C(Nc2cc(N)ccc2Cl)CCC1=O [Example 02-15, 3-((5-amino-2-chlorophenyl)amino)-2-methylcyclopent-2-en-1-one]	1000 to 10000	1000 to 10000	166 to 168 °C
COc1ccc(NC(=O)c2ccc(NC3=C(C)C(=O)CC3)c(I)c2)cc1 [Example 04-104, 3-iodo-N-(4-methoxyphenyl)-4-((2-methyl-3-oxocyclopent-1-en-1-yl)amino)benzamide]	1000 to 10000	< 1000	222 to 224 °C
CC1=C(Nc2cc(C(=O)Nc3ccccc3C)c3ccccc3c2)CCCC1=O [Example 04-106, 3-((2-methyl-3-oxocyclohex-1-en-1-yl)amino)-N-(o-tolyl)-1-naphthamide]	1000 to 10000	< 1000	249 to 250 °C (dec.)
COc1ccc(C(=O)Nc2ccc(Cl)c(NC3=C(C)C(=O)CC3)c2)cc1 [Example 05-37, N-(4-chloro-3-((2-methyl-3-oxocyclopent-1-en-1-yl)amino)phenyl)-4-methoxybenzamide]	> 10000	< 1000	254 to 257 °C
CC1=C(Nc2cc(NC(=O)c3ccccc3C)ccc2Cl)CCC1=O [Example 05-38, N-(4-chloro-3-((2-methyl-3-oxocyclopent-1-en-1-yl)amino)phenyl)-2-methylbenzamide]	< 1000	< 1000	230 to 232 °C
CC1=C(Nc2cc(NC(=O)C3CCCCC3)ccc2Cl)CCC1=O [Example 05-39, N-(4-chloro-3-[(2-methyl-3-oxocyclopent-1-en-1-yl)amino]phenyl)-cyclohexanecarboxamide]	1000 to 10000	< 1000	240 to 242 °C
CC1=C(Nc2cc(NC(=O)c3cccc4ccccc34)ccc2Cl)CCC1=O [Example 05-40, N-(4-chloro-3-[(2-methyl-3-oxocyclopent-1-en-1-yl)amino]phenyl)-naphthalene-1-carboxamide]	< 1000	< 1000	243 to 245 °C
CC1=C(Nc2ccc(NC(=O)c3ccccc3C)cc2Cl)CCC1=O [Example 05-41, N-(3-chloro-4-((2-methyl-3-oxocyclopent-1-en-1-yl)amino)phenyl)-2-methylbenzamide]	1000 to 10000	< 1000	280 to 283 °C
CC1=C(Nc2cccc(NC(=O)c3ccccc3C)c2Cl)CCC1=O [Example 05-42, N-(2-chloro-3-((2-methyl-3-oxocyclopent-1-en-1-yl)amino)phenyl)-2-methylbenzamide]	1000 to 10000	< 1000	118 to 120 °C
COc1ccc(C(=O)Nc2ccc(Cl)c(NC3=C(C)C(=O)CCC3)c2)cc1 [Example 05-43, N-(4-chloro-3-((2-methyl-3-oxocyclohex-1-en-1-yl)amino)phenyl)-4-methoxybenzamide]	> 10000	> 10000	190 to 195 °C
CC1=C(Nc2cc(NC(=O)c3ccccc3C)ccc2Cl)CCCC1=O [Example 05-44, N-(4-chloro-3-((2-methyl-3-oxocyclohex-1-en-1-yl)amino)phenyl)-2-methylbenzamide]	1000 to 10000	< 1000	199 to 201 °C
CC1=C(Nc2cc(NC(=O)C3CCCCC3)ccc2Cl)CCCC1=O [Example 05-45, N-(4-chloro-3-((2-methyl-3-oxocyclohex-1-en-1-yl)amino)phenyl)-cyclohexanecarboxamide]	1000 to 10000	< 1000	192 to 195 °C
CC1=C(Nc2cc(NC(=O)c3cccc4ccccc34)ccc2Cl)CCCC1=O [Example 05-46, N-(4-chloro-3-((2-methyl-3-oxocyclohex-1-en-1-yl)amino)phenyl)-1-naphthamide]	1000 to 10000	< 1000	245 to 247 °C
CC1=C(Nc2ccc(NC(=O)c3cccc4ccccc34)cc2Cl)CCCC1=O [Example 05-47, N-(3-chloro-4-((2-methyl-3-oxocyclohex-1-en-1-yl)amino)phenyl)-1-naphthamide]	1000 to 10000	< 1000	245 to 247 °C
CC1=C(Nc2ccc(NC(=O)c3ccccc3C)cc2Cl)CCCC1=O [Example 05-48, N-(3-chloro-4-((2-methyl-3-oxocyclohex-1-en-1-yl)amino)phenyl)-2-methylbenzamide]	1000 to 10000	< 1000	234 to 236 °C
CC1=C(Nc2ccc(NC(=O)C3CCCCC3)cc2Cl)CCCC1=O [Example 05-49, N-(3-chloro-4-((2-methyl-3-oxocyclohex-1-en-1-yl)amino)phenyl)-cyclohexanecarboxamide]	1000 to 10000	< 1000	248 to 250 °C
CC1=C(Nc2cccc(NC(=O)C3CCCCC3)c2Cl)CCCC1=O [Example 05-51, N-(2-chloro-3-((2-methyl-3-oxocyclohex-1-en-1-yl)amino)phenyl)-cyclohexanecarboxamide]	> 10000	1000 to 10000	205 to 208 °C
CC1=C(Nc2cccc(NC(=O)c3cccc4ccccc34)c2Cl)CCCC1=O [Example 05-52, N-(2-chloro-3-((2-methyl-3-oxocyclohex-1-en-1-yl)amino)phenyl)-1-naphthamide]	1000 to 10000	< 1000	178 to 180 °C
CC1=C(Nc2cc(NS(C)(=O)=O)ccc2Cl)CCC1=O [Example 05-53, N-(4-chloro-3-((2-methyl-3-oxocyclopent-1-en-1-yl)amino)-phenyl)-methanesulfonamide]	1000 to 10000	1000 to 10000	213 to 215 °C
